Experimental data taken from publication PMC2978705, “Thermodynamic Additivity of Sequence Variations: An Algorithm for Creating High Affinity Peptides Without Large Libraries or Structural Information” (PLoS ONE, 2010).
Blank lines part the entries; values can stand above or below the sequence they belong to. Where no end group is shown, it is not given here.

Key:
Type in all cases: binding
transferrin = transferrin (Homo sapiens, UniProt P02787); experiment: Equilibrium SPR affinity of TRF26 peptides for immobilized transferrin; conditions: peptide concentration series
Sequence of transferrin (P02787 20-698, species assumed): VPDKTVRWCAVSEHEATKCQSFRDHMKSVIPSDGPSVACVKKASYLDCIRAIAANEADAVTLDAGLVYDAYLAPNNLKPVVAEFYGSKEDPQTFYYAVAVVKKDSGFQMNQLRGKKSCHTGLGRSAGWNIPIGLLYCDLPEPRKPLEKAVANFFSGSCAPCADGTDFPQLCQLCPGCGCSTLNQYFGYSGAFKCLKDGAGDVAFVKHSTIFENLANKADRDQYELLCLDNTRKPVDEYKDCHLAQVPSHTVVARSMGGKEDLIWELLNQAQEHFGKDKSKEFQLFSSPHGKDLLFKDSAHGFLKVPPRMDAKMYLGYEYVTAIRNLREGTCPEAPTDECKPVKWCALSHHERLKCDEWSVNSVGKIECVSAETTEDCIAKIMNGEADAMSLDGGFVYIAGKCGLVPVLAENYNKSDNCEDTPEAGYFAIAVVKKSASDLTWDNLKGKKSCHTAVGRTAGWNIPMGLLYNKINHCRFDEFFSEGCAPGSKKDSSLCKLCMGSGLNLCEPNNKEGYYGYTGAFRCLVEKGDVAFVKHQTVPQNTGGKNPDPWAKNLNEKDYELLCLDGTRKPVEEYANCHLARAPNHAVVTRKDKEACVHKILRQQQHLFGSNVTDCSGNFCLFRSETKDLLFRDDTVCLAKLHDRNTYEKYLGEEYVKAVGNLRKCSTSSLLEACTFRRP

TNF-α [1] = target: T1, TNF-α (Homo sapiens, UniProt P01375); experiment: Equilibrium SPR affinity of peptides for captured TNF-α
T1 sequence (P01375 77-233 limits assumed): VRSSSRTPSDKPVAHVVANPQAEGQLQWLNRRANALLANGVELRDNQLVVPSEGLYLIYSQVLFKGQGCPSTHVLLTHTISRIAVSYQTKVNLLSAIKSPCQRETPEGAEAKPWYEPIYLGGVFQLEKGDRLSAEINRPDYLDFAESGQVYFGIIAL
Method: Point-variant libraries were prepared in 96-well stock plates as described in the supporting information. From the stock plate, peptides were diluted to 50 µM or 10 µM in Biacore HBS-EP buffer (GE Healthcare, Piscataway, NJ) containing 1 mg/ml carboxymethyl-dextran (Sigma-Aldrich, St. Louis, MO) to reduce non-specific binding to the CM-5 SPR chip surface. Biotinylated TNF-α was captured on a neutravidin coated Biacore CM-5 chip (GE Healthcare, Piscataway, NJ) at different levels on spots 1, 2, 4, and 5 across all four flow cells corresponding to a low to moderate Rmax range of 40-200 RU. Spot 3 on all flow cells contained only immobilized neutravidin and served as a reference spot.
Responses were normalized to the predicted Rmax so that results from different TNF-α capture levels could be directly compared.
Sequences containing multiple enhancing point variations were synthesized using standard solid-phase synthesis and purified. Multiple variant affinities were determined with the same protocol used for point-variant affinities.
Peptide binding energies and dissociation constants (Kd) were calculated separately as a mean and standard error of all replicate measurements.
Text S1: Experimental Details […]
Point-Variant Libraries. Point-variant libraries were ordered in PEPScreen® 96 -vial format from Sigma-Genosys (St. Louis, MO). The purity of each peptide in the library was […]
was dissolved in HBS-N buffer to an approximate 2 mg/ml concentration, each vial was centrifuged to spin insoluble peptide to the bottom of the vial. Supernatant was collected from each vial and transferred to a 96-well plate, peptide supernatant concentrations in each well was measured using A280 absorbance and a predicted molar extinction coefficient (ε280) based on the specific peptide sequence. Based on the supernatant concentrations, all the […]
plate(s). All SPR screens of the point-variants were done using dilutions from this stock […]
SPR Assays. SPR Chip Preparation. Unless otherwise noted, SPR immobilization was done on a Biacore A100 SPR system (GE Healthcare, Piscataway, NJ). A standard coupling protocol was employed to immobilize a neutravidin capture surface via exposed primary amines. The immobilization was performed at 25 °C using Sodium Acetate (10 mM in 150 mM Sodium Chloride, pH 4.5) as the running buffer. Addressable spots 1, 2, 3 on each of the four flow cells of the CM-5 dextran SPR chip (GE Healthcare, Piscataway, NJ) were activated by a 10 minute injection of a freshly prepared 1:1 solution of 400 mM 1-ethyl-3-(3-dimethylaminopropyl)-carbodimide (EDC): 100 mM N-hydroxysuccimide (NHS) in […]

TNF-α [2] = target: T1, TNF-α; experiment: Kinetic fits of SPR sensorgrams; conditions: for koff / kon: kinetic fits of SPR sensorgrams across a concentration series; for Kd: from koff and kon of SPR kinetic fits
Method: Kinetic fits of the TNF1 and TNF1-opt SPR sensorgrams (Figure S7 in File S1) indicate that TNF1-opt has approximately an order of magnitude or more improvement in both on-rate (kon), and off-rate (koff), when compared to TNF1 (TNF1: koff = 1.6±0.5 s^−1, kon = 5.0±1.7×10^3 M^−1s^−1, TNF1-opt: koff = 0.2±0.02 s^−1 kon = 2.6±0.2×10^5 M^−1s^−1).
Figure S7. SPR sensorgram kinetic fits for TNF1 and TNF1-opt. On-rates (kon), off-rates (koff) and dissociation constants (Kd) shown were determined from kinetic fits of several sensorgrams across the same concentration series used in equilibrium binding response analysis.
(1 picture or pasted object on this page, not shown here)

TNF-α [3] = target: T1, TNF-α; experiment: Solution-phase fluorescence anisotropy of labeled TNF1-opt with TNF-α; conditions: peptide labeled at C-terminal cysteine fixed at 100 nM, TNF-α varied 80 nM to 10 µM, triplicate
Method: Figure 4 Equilibrium binding isotherms for TNF1-opt. Outer plot: SPR normalized replicate responses performed with TNF-α captured on the SPR chip surface and variable TNF-opt concentrations flowed over the surface. Inset plot: Solution-phase fluorescence anisotropy measurements performed in triplicate with TNF1-opt labeled at the C-terminal cysteine, TNF-opt concentration was fixed at 100 nM while TNF-α concentration was varied. TNF1-opt sensorgrams are available in Figure S5 in File S1, SPR binding isotherms for all enhanced variants tested are available in Figure S6 in File S1.
TNF1 and TNF4 Lead Generation from a […] Random Peptide Screen. Peptide Library and SPR Chip Preparation. Random 20-mer peptides were prepared in 384-well plates and diluted with Biacore HBS-EP buffer (GE Healthcare, Piscataway, NJ) containing 1 mg/ml carboxymethyl-dextran (Sigma-Aldrich, St. Louis, MO) to reduce non-specific binding to the CM-5 SPR chip surface. […]
TNF1-opt Fluorescence Polarization Affinity Characterization. Fluorescence anisotropy measurements were performed on a custom fluorimeter with an orthogonal optical configuration. […]
200 nM TNF-α and 200 nM E.coli lysate (calculated as a total protein concentration in the lysate) labeled with Alexa-555 and Alexa-647 (Invitrogen, Carlsbad, CA) respectively in PBST buffer containing 1% BSA was incubated with the microarray for 1 hour in a humidity chamber. […]

[4] = equilibrium SPR, TNF-α captured on chip, peptide concentration series, mean ± standard error of several replicates, SEM
[5] = equilibrium SPR binding responses, TNF-α

Kd (transferrin): 9.7 ± 1.6 µM
Sequence: AHKVVPQRQIRFAYNRYGSC [Peptide H12F]

Kd (transferrin): 85 ± 14 µM
Sequence: AHKVVPQRQIRHAYNRYGSC [TRF26]

Kd (transferrin): 0.5 ± 0.1 µM
Sequence: AHKVVYQRQIRFAYNRYGSC [P6Y+H12F]

Kd (transferrin): 8.6 ± 1.6 µM
Sequence: AHKVVYQRQIRHAYNRYGSC [Peptide P6Y]

Kd (TNF-α [1]; [4]): 57 ± 20 µM
Sequence: FERDPLKMPWSFLQSRQGSC [Peptide M7K]

Kd (TNF-α [1]; [4]): 40 ± 7.2 µM
Sequence: FERDPLMMPWKFLQSRQGSC [Peptide S11K]

Kd (TNF-α [1]; [4]): 160 ± 19 µM | koff (TNF-α [2]): 1.6 ± 0.5 s⁻¹ | kon (TNF-α [2]): 5000 ± 1.7e+06 M⁻¹ s⁻¹
Sequence: FERDPLMMPWSFLQSRQGSC [TNF1]

Kd (TNF-α [1]; [4]): 27 ± 1.8 µM
Sequence: FERDYLKMPWSFLQSRQGSC [P5Y+M7K]

Kd (TNF-α [1]; [4]): 24 ± 1.4 µM
Sequence: FERDYLMMPWKFLQSRQGSC [P5Y+S11K]

Kd (TNF-α [1]; [4]): 58 ± 3.4 µM
Sequence: FERDYLMMPWSFLQSRQGSC [Peptide P5Y]

Kd (TNF-α [1]; [4]): 1.6 ± 0.3 µM | Kd (TNF-α [3]): 1.1 ± 0.2 µM | Kd (TNF-α [2]; read-out: Kd calculated from rate constants): 0.7 ± 0.02 µM | koff (TNF-α [2]): 0.2 ± 0.02 s⁻¹ | kon (TNF-α [2]): 260000 ± 2e+09 M⁻¹ s⁻¹
Sequence: FERSYLKMPWKFLQSRQGSC [TNF1-opt]

Kd (TNF-α [1]; [4]): 14 ± 1 µM
Sequence: FERSYLKMPWSFLQSRQGSC [D4S+P5Y+M7K]

Kd (TNF-α [1]; [4]): 7 ± 0.5 µM
Sequence: FERSYLMMPWKFLQSRQGSC [D4S+P5Y+S11K]

Kd (TNF-α [1]; [4]): 17 ± 1.9 µM
Sequence: FERYPLKMPWSFLQSRQGSC [D4Y+M7K]

Kd (TNF-α [1]; [4]): 9.3 ± 0.7 µM
Sequence: FERYPLMMPWKFLQSRQGSC [D4Y+S11K]

Kd (TNF-α [1]; [4]): 44 ± 4.8 µM
Sequence: FERYPLMMPWSFLQSRQGSC [Peptide D4Y]

Kd (TNF-α [1]; [5]): 0.38 ± 0.08 µM
Sequence: WGPSDAFKITRFHQQSSGSC [Peptide Y1W]

Kd (TNF-α [1]; [5]): 0.2 ± 0.03 µM
Sequence: WGPSYAFKITRFHQQSSGSC [Y1W+D5Y]

Kd (TNF-α [1]; [5]): 0.09 ± 0.02 µM | Kd (TNF-α [2]; read-out: Kd resulting from rate constants): 0.13 ± 0.03 µM | koff (TNF-α [2]): 0.0075 ± 8e-07 s⁻¹ | kon (TNF-α [2]): 58000 ± 1.2e+08 M⁻¹ s⁻¹
Sequence: WGPSYAFKIYRFHQQSSGSC [TNF4-opt]

Kd (TNF-α [1]; [4]): 23 ± 3.5 µM
Sequence: YGPSDAFKITRFHQQSSGSC [TNF4]

Kd (TNF-α [1]; [5]): 0.31 ± 0.01 µM
Sequence: YGPSDAFKIYRFHQQSSGSC [Peptide T10Y]

Kd (TNF-α [1]; [5]): 0.28 ± 0.04 µM
Sequence: YGPSYAFKITRFHQQSSGSC [Peptide D5Y]
